Source: ChEMBL document CHEMBL1201862, “PubChem BioAssay data set” (2004)
Active and inactive are the calls of the source.

Tests used:
[1] = molecular target: Nuclear receptor subfamily 5 group A member 2 (Homo sapiens, UniProt O00482); assay type: functional, cell-based;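 note: HEK293T cells transfected with LRH-1 and a StAR promoter luciferase reporter; potency for inhibitors that lower LRH-1 driven reporter light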
Steroidogenic factor 1 = Steroidogenic factor 1 (Homo sapiens, UniProt Q13285); experiment: Counterscreen for inverse agonists of the liver receptor homolog-1 (LRH-1; NR5A2): Luminescence-based cell-based high throughput dose response assay to identify inverse agonists of the Steroidogenic Factor 1 Nuclear Receptor (SF1; NR5A1).; assay type: functional
[2] = nonselective StAR promoter luciferase inhibitors – cell-based, luminescence, luciferase reporter, counter-screen for LRH-1 inverse agonist project, dose response (AID 651969); assay type: functional
[3] = molecular target: T1, Heat shock factor protein 1 (Mus musculus, UniProt P38532); experiment: decrease of HSF1-responsive luciferase luminescence – cell-based, NIH3T3, dose retest, confirmation (AID 2382); assay type: functional;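 note: NIH3T3 fibroblasts with HSF1-driven luciferase reporter stressed by proteasome inhibitor MG132; luminescence from HSF1-driven luciferase expression after 8 hours of MG132 stress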
T1 sequence (P38532 whole entry): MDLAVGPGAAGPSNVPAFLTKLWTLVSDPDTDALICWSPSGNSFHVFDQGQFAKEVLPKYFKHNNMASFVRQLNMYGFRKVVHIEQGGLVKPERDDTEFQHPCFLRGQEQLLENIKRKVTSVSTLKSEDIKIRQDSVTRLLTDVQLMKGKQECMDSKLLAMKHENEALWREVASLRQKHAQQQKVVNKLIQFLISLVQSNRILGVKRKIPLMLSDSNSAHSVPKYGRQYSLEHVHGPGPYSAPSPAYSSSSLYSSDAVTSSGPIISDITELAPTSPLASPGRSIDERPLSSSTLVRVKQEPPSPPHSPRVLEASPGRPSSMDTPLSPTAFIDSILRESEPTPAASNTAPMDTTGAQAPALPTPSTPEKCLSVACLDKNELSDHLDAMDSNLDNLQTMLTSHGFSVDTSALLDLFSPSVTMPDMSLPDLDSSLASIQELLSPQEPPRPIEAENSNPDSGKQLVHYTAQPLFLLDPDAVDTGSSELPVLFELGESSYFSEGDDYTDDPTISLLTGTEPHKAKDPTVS

[4] = molecular target: T2, Low molecular weight phosphotyrosine protein phosphatase (Homo sapiens, UniProt P24666); assay type: functional; conditions: read-out: IC50_Mean
T2 sequence (P24666 whole entry): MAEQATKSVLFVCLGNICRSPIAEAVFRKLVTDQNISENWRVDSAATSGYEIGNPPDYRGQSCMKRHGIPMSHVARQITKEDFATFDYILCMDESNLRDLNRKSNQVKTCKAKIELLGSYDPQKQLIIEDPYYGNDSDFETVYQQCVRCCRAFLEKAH

[5] = molecular target: T2, Low molecular weight phosphotyrosine protein phosphatase; assay type: functional; conditions: read-out: IC50_Mean; remark: listed apart in the source
[6] = molecular target: Long-chain-fatty-acid--AMP ligase FadD28 (Mycobacterium tuberculosis, UniProt P9WQ59); experiment: Fluorescence polarization aasay to screen for inhibitors that compete for the binding of FadD28 to a bisubstrate Measured in Biochemical System Using Plate Reader - 2147-01_Inhibitor_Dose_CherryPick_Activity.; assay type: functional, Mycobacterium tuberculosis H37Rv
[7] = CTGF mRNA reduction in DLD1 cells – cell-based, DLD1 colon cancer, RT-qPCR, cherry-pick, dose response (AID 1053122); assay type: functional; conditions: Cancer cell lines
[8] = molecular target: FAD-linked sulfhydryl oxidase ALR (Homo sapiens, UniProt P55789); experiment: ALR-catalysed DTT oxidation blockers – biochemical, H2O2 detection, luminescence, cherry-pick, dose response (AID 493248)
[9] = molecular target: Histone-lysine N-methyltransferase NSD2 (Homo sapiens, UniProt O96028); assay type: biochemical
[10] = molecular target: T3, DNA repair protein RAD52 homolog (Homo sapiens, UniProt P43351); assay type: functional, biochemical
T3 sequence (P43351 whole entry): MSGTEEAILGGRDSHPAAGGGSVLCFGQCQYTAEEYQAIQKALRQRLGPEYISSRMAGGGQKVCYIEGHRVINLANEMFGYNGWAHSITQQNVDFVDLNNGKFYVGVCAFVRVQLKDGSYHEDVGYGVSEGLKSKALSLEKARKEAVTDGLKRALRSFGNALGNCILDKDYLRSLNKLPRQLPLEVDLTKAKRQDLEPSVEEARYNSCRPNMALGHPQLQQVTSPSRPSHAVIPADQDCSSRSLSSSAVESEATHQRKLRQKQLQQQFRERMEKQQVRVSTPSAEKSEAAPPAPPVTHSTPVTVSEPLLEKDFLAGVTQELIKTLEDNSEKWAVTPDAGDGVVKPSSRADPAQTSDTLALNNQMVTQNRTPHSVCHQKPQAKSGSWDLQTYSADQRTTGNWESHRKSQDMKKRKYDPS

[11] = Fluorescence-based cell-based high throughput dose response assay for inhibitors of the interaction of nucleotide-binding oligomerization domain containing 2 (NOD2) and the receptor-interacting serine-threonine kinase 2 (RIPK2).; assay type: functional; conditions: Homo sapiens
[12] = molecular target: T4, Carboxy-terminal domain RNA polymerase II polypeptide A small phosphatase 1 (Homo sapiens, UniProt Q9GZU7); experiment: CTDSP1 inhibitors, concentration-response, biochemical, absorbance readout, ultra-high-throughput screen actives (AID 540297); assay type: functional
T4 sequence (Q9GZU7 whole entry): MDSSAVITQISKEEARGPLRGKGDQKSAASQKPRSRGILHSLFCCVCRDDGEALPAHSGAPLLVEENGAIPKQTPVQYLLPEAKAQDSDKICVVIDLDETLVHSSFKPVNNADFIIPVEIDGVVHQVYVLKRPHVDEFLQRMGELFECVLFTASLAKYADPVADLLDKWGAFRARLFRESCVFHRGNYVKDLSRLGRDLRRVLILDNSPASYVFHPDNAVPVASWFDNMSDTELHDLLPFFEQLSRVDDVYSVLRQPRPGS

[13] = general mammalian cell viability loss – inhibitor set, cherry-pick, set 2, cytotoxicity control for miR-122 modulator project, dose response (AID 720697); assay type: functional, cell-based
[14] = general mammalian cell viability loss – activator set, cherry-pick, cytotoxicity control for miR-122 modulator project, dose response (AID 720690); assay type: functional, cell-based;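 note: HEK293T human cells scored for general mammalian cytotoxicity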
Large T antigen = Large T antigen (Simian virus 40, UniProt P03070); assay type: functional, Betapolyomavirus macacae;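 note: Confirmatory-stage PubChem screen for compounds that inhibit SV40 T antigen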
[15] = viability loss in CEM21 cells – cell-based, CellTiter-Glo luminescence, cherry-picked, cytotoxicity control for viral fusion inhibitor project, dose response (AID 652042); assay type: functional;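 note: potency for signal decrease meaning cytotoxicity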
[16] = blockers of HIV-1 envelope-mediated cell-cell fusion – cherry-pick, dose response (AID 652057); assay type: functional, cell-based

Histone-lysine N-methyltransferase NSD2, sequence (O96028 whole entry): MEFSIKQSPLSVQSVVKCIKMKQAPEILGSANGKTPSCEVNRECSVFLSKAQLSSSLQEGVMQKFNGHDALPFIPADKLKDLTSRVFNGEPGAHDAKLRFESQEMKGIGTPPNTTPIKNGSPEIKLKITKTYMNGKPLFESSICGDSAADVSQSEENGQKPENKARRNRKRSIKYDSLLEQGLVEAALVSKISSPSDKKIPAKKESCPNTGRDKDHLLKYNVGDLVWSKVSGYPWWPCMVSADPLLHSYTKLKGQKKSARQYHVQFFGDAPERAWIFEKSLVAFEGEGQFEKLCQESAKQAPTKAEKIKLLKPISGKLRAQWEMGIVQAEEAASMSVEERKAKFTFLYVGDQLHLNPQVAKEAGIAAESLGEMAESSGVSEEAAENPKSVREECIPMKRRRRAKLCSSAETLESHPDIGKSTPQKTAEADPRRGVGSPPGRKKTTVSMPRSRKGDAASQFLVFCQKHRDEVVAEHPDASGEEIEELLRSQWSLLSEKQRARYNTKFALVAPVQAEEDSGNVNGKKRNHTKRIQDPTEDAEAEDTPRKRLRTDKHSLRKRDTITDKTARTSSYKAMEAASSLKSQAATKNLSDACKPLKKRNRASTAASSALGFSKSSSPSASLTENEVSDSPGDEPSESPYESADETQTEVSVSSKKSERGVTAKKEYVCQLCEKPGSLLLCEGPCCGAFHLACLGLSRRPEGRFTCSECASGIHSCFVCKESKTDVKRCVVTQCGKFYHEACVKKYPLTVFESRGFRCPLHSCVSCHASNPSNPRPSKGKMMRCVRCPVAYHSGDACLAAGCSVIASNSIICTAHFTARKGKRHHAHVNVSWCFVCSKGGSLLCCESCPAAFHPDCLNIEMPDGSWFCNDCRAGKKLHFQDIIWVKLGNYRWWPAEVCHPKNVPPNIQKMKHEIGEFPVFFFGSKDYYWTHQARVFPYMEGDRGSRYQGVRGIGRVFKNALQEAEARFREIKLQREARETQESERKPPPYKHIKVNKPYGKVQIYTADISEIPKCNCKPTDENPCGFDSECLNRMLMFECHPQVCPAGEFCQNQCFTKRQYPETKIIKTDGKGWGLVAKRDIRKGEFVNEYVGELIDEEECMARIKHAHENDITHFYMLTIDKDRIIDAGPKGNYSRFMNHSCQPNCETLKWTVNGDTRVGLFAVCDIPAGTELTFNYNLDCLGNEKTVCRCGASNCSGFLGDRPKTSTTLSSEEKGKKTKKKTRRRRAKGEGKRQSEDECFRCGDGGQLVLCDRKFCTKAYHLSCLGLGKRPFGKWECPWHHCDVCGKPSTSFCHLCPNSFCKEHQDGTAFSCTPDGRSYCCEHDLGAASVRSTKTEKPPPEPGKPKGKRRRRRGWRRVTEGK
FAD-linked sulfhydryl oxidase ALR, sequence (P55789 whole entry): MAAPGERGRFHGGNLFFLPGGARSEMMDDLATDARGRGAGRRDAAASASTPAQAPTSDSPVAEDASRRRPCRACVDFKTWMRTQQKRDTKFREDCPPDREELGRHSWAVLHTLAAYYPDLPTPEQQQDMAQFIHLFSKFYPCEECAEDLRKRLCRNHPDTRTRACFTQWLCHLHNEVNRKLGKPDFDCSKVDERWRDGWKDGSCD
Large T antigen, sequence (P03070 whole entry, the tested form may be a part): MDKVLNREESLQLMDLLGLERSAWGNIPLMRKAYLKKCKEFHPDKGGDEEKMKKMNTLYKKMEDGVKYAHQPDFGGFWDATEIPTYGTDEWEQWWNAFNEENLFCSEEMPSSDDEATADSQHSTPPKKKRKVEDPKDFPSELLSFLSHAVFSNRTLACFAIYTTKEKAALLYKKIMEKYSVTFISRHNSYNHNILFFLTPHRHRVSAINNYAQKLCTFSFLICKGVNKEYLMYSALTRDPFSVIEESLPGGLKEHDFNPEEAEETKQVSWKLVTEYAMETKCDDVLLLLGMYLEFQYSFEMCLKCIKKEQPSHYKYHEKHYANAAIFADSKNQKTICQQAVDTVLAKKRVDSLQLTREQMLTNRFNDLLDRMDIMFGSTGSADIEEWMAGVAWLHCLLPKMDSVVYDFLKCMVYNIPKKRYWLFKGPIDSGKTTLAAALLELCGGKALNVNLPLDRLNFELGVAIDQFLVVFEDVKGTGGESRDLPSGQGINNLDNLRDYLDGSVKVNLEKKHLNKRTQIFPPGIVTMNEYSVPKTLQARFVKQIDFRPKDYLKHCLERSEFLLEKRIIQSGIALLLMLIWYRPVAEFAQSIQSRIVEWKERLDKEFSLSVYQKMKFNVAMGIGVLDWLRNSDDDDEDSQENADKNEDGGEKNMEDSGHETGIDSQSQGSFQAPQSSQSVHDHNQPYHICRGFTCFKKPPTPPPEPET
Steroidogenic factor 1, sequence (Q13285 whole entry): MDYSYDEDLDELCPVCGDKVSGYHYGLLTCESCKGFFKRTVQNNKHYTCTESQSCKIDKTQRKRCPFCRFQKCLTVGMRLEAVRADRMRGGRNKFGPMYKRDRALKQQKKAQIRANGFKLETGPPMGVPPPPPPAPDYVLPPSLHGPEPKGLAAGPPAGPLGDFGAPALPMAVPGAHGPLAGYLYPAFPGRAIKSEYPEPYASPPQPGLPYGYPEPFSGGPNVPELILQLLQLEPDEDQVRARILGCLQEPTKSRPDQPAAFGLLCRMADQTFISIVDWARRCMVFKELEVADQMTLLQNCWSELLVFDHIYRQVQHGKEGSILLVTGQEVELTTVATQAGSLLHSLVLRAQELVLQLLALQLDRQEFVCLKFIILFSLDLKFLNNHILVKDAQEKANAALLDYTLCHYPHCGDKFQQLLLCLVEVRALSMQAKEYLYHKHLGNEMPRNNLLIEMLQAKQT
Long-chain-fatty-acid--AMP ligase FadD28, sequence (P9WQ59 whole entry): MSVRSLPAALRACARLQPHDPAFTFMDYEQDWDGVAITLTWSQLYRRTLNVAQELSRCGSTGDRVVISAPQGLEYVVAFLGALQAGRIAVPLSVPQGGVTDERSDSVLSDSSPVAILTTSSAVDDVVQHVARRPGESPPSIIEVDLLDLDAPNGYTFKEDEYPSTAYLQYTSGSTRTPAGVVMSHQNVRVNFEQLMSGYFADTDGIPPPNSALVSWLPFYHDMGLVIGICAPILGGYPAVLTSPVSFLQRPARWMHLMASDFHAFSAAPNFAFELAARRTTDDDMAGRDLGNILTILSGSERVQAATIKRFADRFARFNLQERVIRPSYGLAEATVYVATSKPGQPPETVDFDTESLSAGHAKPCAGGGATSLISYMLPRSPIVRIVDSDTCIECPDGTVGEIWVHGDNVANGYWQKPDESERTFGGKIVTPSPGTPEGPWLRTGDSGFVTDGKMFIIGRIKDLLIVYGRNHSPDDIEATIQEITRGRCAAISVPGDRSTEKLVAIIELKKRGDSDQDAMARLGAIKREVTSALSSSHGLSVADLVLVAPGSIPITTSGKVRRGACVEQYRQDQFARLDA
Nuclear receptor subfamily 5 group A member 2, sequence (O00482 whole entry): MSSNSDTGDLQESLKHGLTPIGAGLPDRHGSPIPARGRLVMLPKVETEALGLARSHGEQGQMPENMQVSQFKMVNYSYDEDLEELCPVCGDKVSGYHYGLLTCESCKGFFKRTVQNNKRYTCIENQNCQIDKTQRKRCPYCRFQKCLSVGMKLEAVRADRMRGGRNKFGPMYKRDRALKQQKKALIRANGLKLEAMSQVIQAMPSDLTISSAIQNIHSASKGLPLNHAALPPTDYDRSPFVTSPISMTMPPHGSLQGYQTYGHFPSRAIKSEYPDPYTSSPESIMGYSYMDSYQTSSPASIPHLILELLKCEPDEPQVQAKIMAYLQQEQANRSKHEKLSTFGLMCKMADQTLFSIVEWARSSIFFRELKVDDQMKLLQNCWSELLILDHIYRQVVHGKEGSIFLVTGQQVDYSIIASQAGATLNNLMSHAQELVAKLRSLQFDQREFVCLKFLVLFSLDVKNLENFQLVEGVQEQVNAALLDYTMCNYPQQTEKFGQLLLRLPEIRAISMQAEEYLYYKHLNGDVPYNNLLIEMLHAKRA

## Cc1c(Cl)cccc1NC(=O)CS(=O)(=O)c1ccccc1
[1]
  IC50: 3.98 µM (active)
Steroidogenic factor 1
  IC50: 9.39 µM (active)
[2]
  IC50: 35.8 µM (inactive)
[3]
  EC50: > 195 µM (not active)

## CC(/C=N/NC(=O)c1ccc(Br)cc1)=C\c1ccccc1
[4]
  IC50: 17.2 µM (active)
[5]
  IC50: 28.5 µM (inactive)

## CCOC(=O)c1ccc(NC(=S)N(CCN(C)C)Cc2cccs2)cc1
[6]
  AC50: > 100 µM (inactive)

## C[C@@H]1CN([C@H](C)CO)C(=O)c2ccccc2-c2ccccc2CO[C@@H]1CN(C)Cc1cccc2c1OCCCO2
[7]
  AC50: 12.3 µM (active)

## CCN1CCN(c2ccc(N)cc2)CC1
[8]
  AC50: 4.5 µM (active)
[9]
  AC50: > 20 µM (inactive)
[10]
  AC50: 1.47 µM (active)

## CCOC(=O)[C@]12Cc3c(cc(OC)c(OC)c3OC)[C@H]1N(C1CCCCC1)C(=O)c1cc(OC)ccc12
[11]
  IC50: 2.36 µM (active)

## CCc1ccc(NC(=O)C[S+]([O-])CC(=O)Nc2ccc(N3CCOCC3)cc2)cc1 (stereo not drawn)
[4]
  IC50: 17.4 µM (active)
[5]
  IC50: 16.8 µM (active)
[12]
  IC50: 5.78 µM (active)

## C[C@@H]1CN([C@@H](C)CO)C(=O)Cc2cc(NS(=O)(=O)c3ccc(Cl)cc3)ccc2O[C@H]1CN(C)Cc1ccc(C(F)(F)F)cc1
[13]
  AC50: < 195 nM (active)
[14]
  AC50: 33.8 µM (active)

## CCN1CCN(c2ccc(N)cc2C)CC1
Large T antigen
  IC50: 6.6 µM (active)
[8]
  AC50: 1.73 µM (active)
[9]
  AC50: > 20 µM (inactive)
[10]
  AC50: 0.278 µM (active)

## COCCCNC(=O)c1sc2ncnc(N3CCc4ccccc4C3)c2c1C
[15]
  AC50: 6.66 µM (active)
[16]
  AC50: 3.98 µM (active)
